Experiments:
Type in all cases: cell-based
[1] = biological target: T1, maxi-K channel (alpha and beta 1 subunits) in stably transfected HEK-293 cells (Homo sapiens, UniProt Q12791); assay: VIPR/FRET membrane potential assay, HEK-293 cells stably transfected with alpha and beta 1 subunits of the maxi-K channel
T1 construct: expressed in transfected cells
Description: Transfection of the alpha and betal subunits of the maxi-K channel in HEK-293 cells was carried out as follows: HEK-293 cells were plated in 100 mm tissue culture treated dishes at a density of 3×10^6 cells per dish, and a total of five dishes were prepared. Cells were grown in a medium consisting of Dulbecco's Modified Eagle Medium (DMEM) supplemented with 10% Fetal Bovine serum, 1× L-Glutamine, and 1× Penicillin/Streptomycin, at 37° C., 10% CO2. For transfection with Maxi-K hα (pCIneo) and Maxi-K hβ1 (pIRESpuro) DNAs, 150 μl FuGENE6™ was added dropwise into 10 ml of serum free/phenol-red free DMEM and allowed to incubate at room temperature for 5 minutes. Then, the FuGENE6™ solution was added dropwise to a DNA solution containing 25 μg of each plasmid DNA, and incubated at room temperature for 30 minutes. After the incubation period, 2 ml of the FuGENE6™/DNA solution was added dropwise to each plate of cells and the cells were allowed to grow two days under the same conditions as described above. At the end of the second day, cells were put under selection media which consisted of DMEM supplemented with both 600 μg/ml G418 and 0.75 μg/ml puromycin. Cells were grown until separate colonies were formed. Five colonies were collected and transferred to a 6 well tissue culture treated dish. A total of 75 colonies were collected. Cells were allowed to grow until a confluent monolayer was obtained. Cells were then tested for the presence of maxi-K channel alpha and beta1 subunits using an assay that monitors binding of ^125I-iberiotoxin-D19Y/Y36F to the channel. Cells expressing ^125I-iberiotoxin-D19Y/Y36F binding activity were then evaluated in a functional assay that monitors the capability of maxi-K channels to control the membrane potential of transfected HEK-293 cells using fluorescence resonance energy transfer (FRET) ABS technology with a VIPR instrument. The colony giving the largest signal to noise ratio was subjected to limiting dilution. For this, cells were resuspended at approximately 5 cells/ml, and 200 μl were plated in individual wells in a 96 well tissue culture treated plate, to add ca. one cell per well. A total of two 96 well plates were made. When a confluent monolayer was formed, the cells were transferred to 6 well tissue culture treated plates. A total of 62 wells were transferred. When a confluent monolayer was obtained, cells were tested using the FRET-functional assay. […]
The plates are loaded into a voltage/ion probe reader (VIPR) instrument, and the fluorescence emission of both CC2DMPE and DiSBAC2(3) are recorded for 10 sec. At this point, 100 μl of high-potassium solution (mM): 140 KCl, 2 CaCl2, 1 MgCl2, 20 Hepes-KOH, pH 7.4, 10 glucose are added and the fluorescence emission of both dyes recorded for an additional 10 sec. […]

[2] = tested on: endogenous potassium conductances of HEK-293 cells; assay: VIPR/FRET membrane potential assay, high-potassium addition to HEK-293 cells; details: FIG. 1; for effect on fluorescence signal caused by high-potassium addition: untransfected HEK-293 cells, different/increasing concentrations of compound; for efficacy (inhibition of fluorescence signal) in the presence of Compound 1: HEK-293 cells, selective maxi-K channel blocker Compound 1 present
Description: HEK-293 cells were plated on 96-well poly-D-lysine plates and incubated for about 16 to 24 hours at 37° C. The media was aspirated and the cells were washed once with D-PBS. Cells were incubated with 9 μM coumarin (CC2DMPE)-0.02% pluronic-127 in D-PBS for 30 minutes in the dark. Cells were washed twice with D-PBS, and incubated with 4.5 μM oxanol (DiSBAC2(3)) in the absence (Control) or presence of increasing concentrations of test compound, in the dark for 30 minutes. Plates were loaded onto a VIPR instrument and the fluorescence emission of both dyes was recorded for 10 seconds. A solution containing high-potassium was then added and the fluorescence emission of the dyes was recorded for another 10 seconds. The coumarin/oxanol ratio was calculated under both conditions. Before addition of high-potassium, this ratio was always normalized to 1.
The signal is not affected by the presence of different concentrations of the selective maxi-K channel blocker, Compound 1. […] A useful concentration range for these agents is 3-10 μM. Importantly, in the presence of the selective maxi-K channel blocker Compound 1, the efficacy of either Compound A or Compound B is unaffected.

[3] = biological target: T2, maxi-K channels transiently expressed in TsA-201 cells (Homo sapiens, UniProt Q12791); assay: VIPR/FRET membrane potential assay, maxi-K channels transiently expressed in TsA-201 cells; details: FIG. 2
T2 construct: expressed in transfected cells; host or cells: TsA-201 cells, transient transfection
T2 sequence (Q12791 whole entry): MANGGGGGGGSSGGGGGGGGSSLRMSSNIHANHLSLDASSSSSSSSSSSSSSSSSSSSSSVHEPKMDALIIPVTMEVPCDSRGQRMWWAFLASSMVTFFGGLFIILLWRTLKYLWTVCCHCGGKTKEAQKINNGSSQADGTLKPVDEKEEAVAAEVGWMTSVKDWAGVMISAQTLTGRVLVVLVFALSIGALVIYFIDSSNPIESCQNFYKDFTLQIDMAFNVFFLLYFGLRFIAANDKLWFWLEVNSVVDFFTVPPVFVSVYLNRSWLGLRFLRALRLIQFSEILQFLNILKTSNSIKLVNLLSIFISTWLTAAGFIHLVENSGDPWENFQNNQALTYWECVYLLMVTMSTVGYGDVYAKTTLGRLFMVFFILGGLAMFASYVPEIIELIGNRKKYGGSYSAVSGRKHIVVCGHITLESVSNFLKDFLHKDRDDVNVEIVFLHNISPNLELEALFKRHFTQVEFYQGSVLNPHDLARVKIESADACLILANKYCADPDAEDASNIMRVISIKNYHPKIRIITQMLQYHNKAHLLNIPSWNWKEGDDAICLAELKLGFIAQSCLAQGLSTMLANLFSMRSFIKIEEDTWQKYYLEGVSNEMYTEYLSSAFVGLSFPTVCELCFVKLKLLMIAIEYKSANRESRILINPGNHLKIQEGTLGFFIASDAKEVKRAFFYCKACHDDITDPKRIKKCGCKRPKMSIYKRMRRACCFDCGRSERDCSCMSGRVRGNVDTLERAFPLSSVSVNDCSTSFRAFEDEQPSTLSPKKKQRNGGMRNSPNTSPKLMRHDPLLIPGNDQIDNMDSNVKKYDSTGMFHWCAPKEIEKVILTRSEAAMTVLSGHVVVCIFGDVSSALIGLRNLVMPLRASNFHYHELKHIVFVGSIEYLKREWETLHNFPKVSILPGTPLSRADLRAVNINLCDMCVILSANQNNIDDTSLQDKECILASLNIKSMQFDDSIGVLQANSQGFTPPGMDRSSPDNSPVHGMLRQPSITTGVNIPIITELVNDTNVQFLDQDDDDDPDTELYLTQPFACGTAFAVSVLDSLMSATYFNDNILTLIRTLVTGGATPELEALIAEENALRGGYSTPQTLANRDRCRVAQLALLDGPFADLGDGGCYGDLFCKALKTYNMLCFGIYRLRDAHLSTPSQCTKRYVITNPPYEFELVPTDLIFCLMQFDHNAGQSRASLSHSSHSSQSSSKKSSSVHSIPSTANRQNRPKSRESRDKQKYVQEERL
T2 sequence (Q16558 whole entry partner): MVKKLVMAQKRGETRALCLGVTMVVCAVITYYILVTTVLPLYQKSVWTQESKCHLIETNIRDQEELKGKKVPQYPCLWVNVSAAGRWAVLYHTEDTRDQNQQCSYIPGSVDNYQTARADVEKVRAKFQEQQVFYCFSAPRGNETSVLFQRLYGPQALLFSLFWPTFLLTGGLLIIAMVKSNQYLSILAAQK
Text: In order to discover novel maxi-K channel blockers, a robust and reliable functional assay is required. High throughput screening assays with ion channels have been developed (see Aurora Biosciences J. E. Gonzalez et al., DDT, 4, 431-439, 1999). For example, transient transfection of maxi-K channel alpha and beta1 subunits into TsA-201 cells leads to the maxi-K channel controlling the membrane potential of those cells, under appropriate experimental conditions. However, transient transfection experiments are limited because, typically, the transfection has to occur for every experiment, the cells are only available for assay twice a week and results can be variable depending on the transfection efficiency. This invention relates to a new functional assay, which utilizes HEK-293 cells, which once transfected remains as such, thereby eliminating the need for further transfection. The claimed method also provides more reliable reading of the maxi-K channel activity.

T1 sequence (Q12791 whole entry): as the sequence (Q12791 whole entry) above
T1 sequence (Q16558 whole entry partner): as the sequence (Q16558 whole entry partner) above

SMILES | inhibition of control signal with increasing concentrations ([1]; 3 μM Compound A present in all wells, FIG. 4) | block of signal generated by addition of high-potassium solution ([1]; compound alone, no blocker of endogenous conductances, FIG. 3) | inhibition of signal generated by addition of high-potassium solution ([1]; in the presence of potassium channel blocker Compound A, FIG. 3) | effect on fluorescence signal caused by high-potassium addition [2] | inhibition of control signal ([3]; 3 μM compound) | effect on the magnitude of the signal caused by addition of high-potassium solution ([1]; stably transfected HEK-293 cells, FIG. 3) | efficacy (inhibition of fluorescence signal) in the presence of Compound 1 [2] | effect on maxi-K channel activity [3]
CC(=O)SCC(Cc1ccccc1)C(=O)NC(Cc1ccccc1)C(=O)NCCc1ccccc1 (stereo not drawn) [Compound 1] | concentration-dependent inhibition of the control signal | only partially blocks the signal | complete inhibition of the signal | not affected | completely inhibits the control signal |  |  | 
CCCNC(=O)OC1CCC(CNC(=O)c2ccccc2OC)(c2ccccc2)CC1 (stereo not drawn) [Compound A] |  |  |  | concentration-dependent inhibition of the fluorescence signal |  | no significant effect | unaffected | neither Compound A, nor Compound B have any effect on maxi-K channel activity
COc1ccccc1C(=O)NCC1(c2ccccc2)CCC(=O)CC1 [Compound B] |  |  |  | concentration-dependent inhibition of the fluorescence signal |  |  | unaffected | neither Compound A, nor Compound B have any effect on maxi-K channel activity
